The target of the assay is human IRAK4 (Homo sapiens (Human), UniProt Q9NWZ3). Description: IRAK4 kinase inhibition, Transcreener fluorescence polarization ADP assay. In kind it is biochemical. The note with it: recombinant full-length His6-IRAK4; 125 uM ATP; 90 min; Ki computed using ATP Km 642 uM. The method, then: Compounds were assayed for inhibition of human IRAK4 and IRAK1 catalytic activity using recombinant enzyme produced from insect cells. Full-length IRAK4 protein, carrying an N-terminal His6-Tag, was obtained from Life Technologies (Carlsbad, Calif., USA). The IRAK1 construct was produced internally and was comprised of IRAK1 residues Arg194 to Ser712, preceded by an NH2-terminal His6 tag and the coding sequence for glutathione-S-transferase.
Chain of human IRAK4 (Q9NWZ3 whole entry, the tested form may be a part): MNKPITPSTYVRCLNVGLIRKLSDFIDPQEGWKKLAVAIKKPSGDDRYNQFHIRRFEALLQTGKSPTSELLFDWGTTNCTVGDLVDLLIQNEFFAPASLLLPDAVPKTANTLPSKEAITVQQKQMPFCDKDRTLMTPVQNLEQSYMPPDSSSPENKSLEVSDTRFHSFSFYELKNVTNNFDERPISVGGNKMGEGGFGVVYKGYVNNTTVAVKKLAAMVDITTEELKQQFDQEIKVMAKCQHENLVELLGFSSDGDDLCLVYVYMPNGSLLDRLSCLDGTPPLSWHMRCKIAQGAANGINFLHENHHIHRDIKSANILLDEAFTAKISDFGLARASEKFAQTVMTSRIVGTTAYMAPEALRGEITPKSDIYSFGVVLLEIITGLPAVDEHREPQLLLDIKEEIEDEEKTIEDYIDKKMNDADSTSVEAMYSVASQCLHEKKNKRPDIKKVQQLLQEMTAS
A general note: Fluorescence polarisation rises when a labelled molecule tumbles more slowly, as on binding a larger partner.
On to `Cc1cnc2c(C(=O)Nc3cc4c(cc3N3CCC(CO)CC3)OCCN4)cnn2c1` [Example 7, N-(7-(4-(Hydroxymethyl)piperidin-1-yl)-3,4-dihydro-2H-benzo[b][1,4]oxazin-6-yl)-6-methylpyrazolo[1,5-a]pyrimidine-3-carboxamide], for which the Ki – broadly, the equilibrium dissociation constant of an inhibitor or competing ligand from its target – was determined as 3.9 nM.

In the case of `CC1(C)Cc2cc(NC(=O)c3cnn4cccnc34)c(N3CCN(CC(F)F)CC3)cc2O1` [Example 8, N-[6-[4-(2,2-Difluoroethyl)piperazin-1-yl]-2,2-dimethyl-3H-benzofuran-5-yl]pyrazolo[1,5-a]pyrimidine-3-carboxamide], the Ki came to 2.3 nM.

As to `O=C(Nc1cc2c(cc1N1CCOCC1)OCCN2)c1cnn2cccnc12` [Example 9, N-(7-Morpholino-3,4-dihydro-2H-benzo[b][1,4]oxazin-6-yl)pyrazolo[1,5-a]pyrimidine-3-carboxamide], the inhibitory constant (Ki) is 98 nM.

For `CC1COc2cc(N3CCOCC3)c(NC(=O)c3cnn4cccnc34)cc2N1` (stereo not drawn) [Example 10, N-(3-Methyl-7-morpholino-3,4-dihydro-2H-benzo[b][1,4]oxazin-6-yl)pyrazolo[1,5-a]pyrimidine-3-carboxamide], the inhibition constant Ki came to 270 nM.

`CC1CNc2cc(NC(=O)c3cnn4cccnc34)c(N3CCOCC3)cc2O1` (stereo not drawn) [Example 11, N-(2-Methyl-7-morpholino-3,4-dihydro-2H-benzo[b][1,4]oxazin-6-yl)pyrazolo[1,5-a]pyrimidine-3-carboxamide]: the Ki amounted to 72 nM.

As to `Cc1cnc2c(C(=O)Nc3cc4c(cc3N3CCC(CO)CC3)OC(C)(C)C4)cnn2c1` [Example 12, N-(6-(4-(Hydroxymethyl)piperidin-1-yl)-2,2-dimethyl-2,3-dihydrobenzofuran-5-yl)-6-methylpyrazolo[1,5-a]pyrimidine-3-carboxamide], the Ki is 2 nM.

Consider `CC1(C)Cc2cc(NC(=O)c3cnn4cccnc34)c(N3CC[C@H](CO)C3)cc2O1` [Example 13, (S)—N-(6-(3-(hydroxymethyl)pyrrolidin-1-yl)-2,2-dimethyl-2,3-dihydrobenzofuran-5-yl)pyrazolo[1,5-a]pyrimidine-3-carboxamide], for which the inhibition constant (Ki) is 6.7 nM.

Regarding `CC1Cc2cc(NC(=O)c3cnn4cccnc34)c(N3CCOCC3)cc2O1` (stereo not drawn) [Example 14, N-(2-Methyl-6-morpholino-2,3-dihydrobenzofuran-5-yl)pyrazolo[1,5-a]pyrimidine-3-carboxamide], the inhibition constant Ki worked out at 19 nM.

As to `CC1(C)Cc2cc(NC(=O)c3cnn4cccnc34)c(N3CC[C@@H](CO)C3)cc2O1` [Example 15, (R)—N-(6-(3-(Hydroxymethyl)pyrrolidin-1-yl)-2,2-dimethyl-2,3-dihydrobenzofuran-5-yl)pyrazolo[1,5-a]pyrimidine-3-carboxamide], the Ki stood at 12 nM.

On to `Cc1cnc2c(C(=O)Nc3cc4c(cc3N3CCC(CO)CC3)OC(C)(CO)C4)cnn2c1` (stereo not drawn) [Example 16, N-(2-(Hydroxymethyl)-6-(4-(hydroxymethyl)piperidin-1-yl)-2-methyl-2,3-dihydrobenzofuran-5-yl)-6-methylpyrazolo[1,5-a]pyrimidine-3-carboxamide], for which the Ki came to 1.9 nM.

Consider `CC1(C)CN(c2cc3c(cc2NC(=O)c2cnn4cccnc24)CC(C)(CO)O3)CCO1` (stereo not drawn) [Example 17, N-(6-(2,2-Dimethylmorpholino)-2-(hydroxymethyl)-2-methyl-2,3-dihydrobenzofuran-5-yl)pyrazolo[1,5-a]pyrimidine-3-carboxamide], for which the inhibition constant Ki is 180 nM.

For `CC1(CO)CCN(c2cc3c(cc2NC(=O)c2cnn4cccnc24)CC(C)(C)O3)C1` (stereo not drawn) [Example 18, N-(6-(3-(Hydroxymethyl)-3-methylpyrrolidin-1-yl)-2,2-dimethyl-2,3-dihydrobenzofuran-5-yl)pyrazolo[1,5-a]pyrimidine-3-carboxamide], the Ki turned out to be 21 nM.

With `CC1(CO)Cc2cc(NC(=O)c3cnn4cccnc34)c(N3CCN(CC(F)F)CC3)cc2O1` (stereo not drawn) [Example 19, N-[6-[4-(2,2-Difluoroethyl)piperazin-1-yl]-2-(hydroxymethyl)-2-methyl-3H-benzofuran-5-yl]pyrazolo[1,5-a]pyrimidine-3-carboxamide], the Ki turned out to be 3.3 nM.

For the compound `CNC[C@H]1OC[C@@H](c2cc3c(cc2NC(=O)c2cnn4cccnc24)CC(C)(C)O3)CO1` [Example 20, Cis-N-[2,2-dimethyl-6-[2-(methylaminomethyl)-1,3-dioxan-5-yl]-3H-benzofuran-5-yl]pyrazolo[1,5-a]pyrimidine-3-carboxamide], the inhibition constant (Ki) was 780 nM.

As to `CCC1(C)Cc2cc(NC(=O)c3cnn4cccnc34)c(N3CCOCC3)cc2O1` (stereo not drawn) [Example 21, N-(2-Ethyl-2-methyl-6-morpholino-2,3-dihydrobenzofuran-5-yl)pyrazolo[1,5-a]pyrimidine-3-carboxamide], the Ki amounted to 6.4 nM.

Take `CN(C)C(=O)C1(C)Cc2cc(NC(=O)c3cnn4cccnc34)c(N3CCOCC3)cc2O1` (stereo not drawn) [Example 23, N-(2-(Dimethylcarbamoyl)-2-methyl-6-morpholino-2,3-dihydrobenzofuran-5-yl)pyrazolo[1,5-a]pyrimidine-3-carboxamide]: the Ki was 31 nM.

For `CC1(C)Cc2cc(NC(=O)c3cnn4cccnc34)c(N3CCC(C(N)C(F)(F)F)CC3)cc2O1` (stereo not drawn) [Example 24, N-[6-[4-(1-Amino-2,2,2-trifluoro-ethyl)-1-piperidyl]-2,2-dimethyl-3H-benzofuran-5-yl]pyrazolo[1,5-a]pyrimidine-3-carboxamide], the Ki came out at 2.9 nM.

For `COCC1(C)Cc2cc(NC(=O)c3cnn4cccnc34)c(N3CCOCC3)cc2O1` (stereo not drawn) [Example 25, N-(2-(Methoxymethyl)-2-methyl-6-morpholino-2,3-dihydrobenzofuran-5-yl)pyrazolo[1,5-a]pyrimidine-3-carboxamide], the Ki came to 10 nM.

For the compound `CC1(CO)Cc2cc(NC(=O)c3cnn4cccnc34)c(N3CCC(F)(F)CC3)cc2O1` (stereo not drawn) [Example 26, N-[6-(4,4-Difluoro-1-piperidyl)-2-(hydroxymethyl)-2-methyl-3H-benzofuran-5-yl]pyrazolo[1,5-a]pyrimidine-3-carboxamide], the Ki stood at 5.1 nM.

With `Cc1cnc2c(C(=O)Nc3cc4c(cc3N3CCOCC3)O[C@@](C)(CO)C4)cnn2c1` [Example 29, (R)—N-(2-(hydroxymethyl)-2-methyl-6-morpholino-2,3-dihydrobenzofuran-5-yl)-6-methylpyrazolo[1,5-a]pyrimidine-3-carboxamide], the Ki is 9 nM.

For the compound `Cc1cnc2c(C(=O)Nc3cc4c(cc3N3CCOCC3)O[C@](C)(CO)C4)cnn2c1` [Example 30, (S)—N-(2-(hydroxymethyl)-2-methyl-6-morpholino-2,3-dihydrobenzofuran-5-yl)-6-methylpyrazolo[1,5-a]pyrimidine-3-carboxamide], the Ki is 32 nM.

On to `CC1(C)Cc2cc(NC(=O)c3cnn4cccnc34)c(N3CCOCC3)cc2O1` [Example 33, N-(2,2-dimethyl-6-morpholino-2,3-dihydrobenzofuran-5-yl)pyrazolo[1,5-a]pyrimidine-3-carboxamide], for which the Ki was 5 nM.

Take `COc1cc2c(cc1NC(=O)c1cnn3cccnc13)CC(C)(C)O2` [Example 34, N-(6-Methoxy-2,2-dimethyl-2,3-dihydrobenzofuran-5-yl)pyrazolo[1,5-a]pyrimidine-3-carboxamide]: the Ki was 38 nM.

With `O=C(Nc1cc2c(cc1N1CCOCC1)OCCCN2)c1cnn2cccnc12` [Example 35, N-(8-Morpholino-2,3,4,5-tetrahydrobenzo[b][1,4]oxazepin-7-yl)pyrazolo[1,5-a]pyrimidine-3-carboxamide], the Ki was found to be 690 nM.

(Values after patent publication US10988478B1, “Pyrazolo[1,5a]pyrimidine derivatives as IRAK4 modulators” (Genentech, Inc., priority 2015, dated 2021).)
